Columns and labels:
Type in all cases: in vivo
dandelion seeds [1] = experiment: Greenhouse dandelion seed germination test, application on soil (Examples 1-3); details: soil pots; for Weed emergence suppression assay score: untreated = 0%
Text: (§1) The “weed emergence suppression assay” comprises:
(§2) applying an amount of a composition or the components thereof to a target area comprising pre-emergent undesired vegetation; and following application (e.g. after at least 7, 14 or 21 days from application) assessing emergence visually using a percentage rating scale from 100% (no undesired vegetation emergence) to 0% (complete undesired vegetation emergence=untreated control).
(§3) Dry FeHEDTA (micro-granular; Dissolvine H—Fe-13) was purchased from the company AkzoNobel. Corn gluten meal (Amaizeingly Green; N—P—K 10-0-0) and the mustard seed meal (Pescadero Gold; N—P—K 4.5-1.5-1.15) were purchased from AgGlobal (155, Gordon Baker Road, Suite 402,Toronto, ON M2H 3N7, Canada. www.buyagglobal.com) and Farm Fuel Inc (275 Coward Rd, Watsonville, Calif. 95076, USA. www.farmfuelinc.com), respectively. The corn gluten meal and mustard seed meal arrived in pellet form, but were ground and sieved through a mesh (sieve opening size 850 μm) before use to obtain a particle size of ≤850 μm. FeHEDTA (4.8%) was mixed with 1% of drying agent (MICRO-CEL® E) and then mixed with fertilizer seed meal (corn gluten meal or mustard seed meal) (94.2%) and blended thoroughly until the formulation became homogeneous. The application rate was 100 g/m^2 for the combined treatment (94.2 g/m^2 for FSM and 4.8 g/m^2 for FeHEDTA), 4.8 g/m^2 for FeHEDTA treatment and 100 g/m^2 for FSM treatment. In the formulation, the respective FSM was simply blended with transition metal chelate and with other ingredients if applicable. Samples were usually prepared within 48 hours of treatment. All tests were done in the greenhouse.
Pots 4″ in size were filled with wetted potting media and dandelion seeds were spread (0.2 g of seeds/four pots in examples 1 and 2 and 0.25 g/4 pots in example 3) evenly over each pot and lightly watered 3 hrs before treating. Seeded pots were covered with a thin layer of potting soil and treatments were applied after seeding (e.g. just after seeding). Each treatment consisted with 4 replicates. All treatments were lightly watered as needed until the seedlings emerged. Number of emerged seedlings in each pot was recorded 7 or 21 days after treatment application.

dandelion seeds [2] = experiment: Greenhouse dandelion seed germination (in grass) test (Example 4); details: dandelion seeded in grass pots
Text: as §1, §2
Dry FeHEDTA (micro-granular; Dissolvine H—Fe-13) was purchased from the company AkzoNobel. Corn gluten meal (Amaizeingly Green; N—P—K 10-0-0) and the mustard seed meal (Pescadero Gold; N—P—K 4.5-1.5-1.15) were purchased from AgGlobal (155, Gordon Baker Road, Suite 402,Toronto, ON M2H 3N7, Canada. www.buyagglobal.com) and Farm Fuel Inc (275 Coward Rd, Watsonville, Calif. 95076, USA. www.farmfuelinc.com), respectively. The corn gluten meal and mustard seed meal arrived in pellet form, but were ground and sieved through a mesh (sieve opening size 850 μm) before use to obtain a particle size of ≤850 μm. […]
(§4) Pots 4″ in size were filled with wetted potting media, grass (lawn) seeds (perennial rye grass) were spread until soil was completely covered with grass seeds (5 g/pot) and kept for 1 month until grass was grown. […] Number of emerged seedlings in each pot was recorded 14 days after application.

[3] = system: grass (lawn), perennial rye grass; experiment: Grass phytotoxicity / selective herbicide assay (Example 4)
Text: The “selective herbicide assay” comprises:
applying an amount of a composition (or the components thereof) to a target area comprising pre-emergent undesired vegetation and desired vegetation; and
following application (e.g. after at least 7, 14 or 21 days from application) assessing separately undesired vegetation emergence and desired vegetation survival visually using a percentage rating scale from 0% (no undesired vegetation emergence/no desired vegetation survival) to 100% (complete undesired vegetation emergence/complete desired vegetation survival).
as §3, §4

Compound: O=C([O-])CN(CCO)CCN(CC(=O)[O-])CC(=O)[O-].[Fe+3] [Dry FeHEDTA (B), FeHEDTA]
- Seedling emergence: No of seedlings (21 days after application) (dandelion seeds [1]; Example 1, 21 days after application, 100 g/m^2 combined or FSM, 4.8 g/m^2 FeHEDTA, untreated 42): 44
- Weed emergence suppression assay score (dandelion seeds [1]; Example 1, 21 days after application): −4.76%
- Seedling emergence: No of seedlings (21 days after application) (dandelion seeds [1]; Example 2, 21 days after application, 100 g/m^2 combined or FSM, 4.8 g/m^2 FeHEDTA, untreated 60): 76
- Weed emergence suppression assay score (dandelion seeds [1]; Example 2, 21 days after application): −26.66%
- Seedling emergence: No of seedlings 7 days after application (dandelion seeds [1]; Example 3, 7 days after application, 100 g/m^2 combined or FSM, 4.8 g/m^2 FeHEDTA, untreated 134): 59
- Weed emergence suppression assay score (dandelion seeds [1]; Example 3, 7 days after application): 55.07%
- Weed emergence suppression assay score (dandelion seeds [2]; 14 days after application, untreated = 0%): 2.63%
- Weed (dandelion) Seedling emergence: No of dandelion seedlings (14 days after application) (dandelion seeds [2]; untreated 76): 74
- Selective herbicide assay score ([3]; score on desired vegetation (grass)): 0%
- Grass phytotoxicty, 7 days after treatment ([3]; visual rating of grass damage, 7 days after treatment): 0
- Grass phytotoxicty, 14 days after treatment ([3]; visual rating of grass damage, 14 days after treatment): 0

From patent US11412735B2, “Pre-emergent herbicide” (W. Neudorff GMBH KG, priority 2016, dated 2022)
